Experiment: Elution of rapamycin from polymer-coated stents into PBS at 37° C., monitored by UV/vis
Assay type: physicochemical
Conditions: stent coating with 25% rapamycin, cumulative absorbance at 279 nm
Method: Solutions were prepared by dissolving the polymers listed in Table 1 in CHCl3 with 25% (by weight of the solid polymer) rapamycin. After cooling for 5 minutes, the stents were attached to a mandrel and coated on the Sonotek MediCoat Benchtop Coater with a 0.5% w/w solution in CHCl3 of polymer/drug (75/25). The parameters used were: 0.09 ml/min flow rate, 1.0 W ultrasonic power, 16 passes, 40 rpm rotation, 0.13 cm/s horizontal travel and 25 mm from stent to spray head. After coating, the stents were dried under vacuum for 16 hours at 40° C. The stents were released into phosphate buffered saline solution (PBS) at 37° C. and the elution monitored by UV/vis spectroscopy. Fresh buffer solution was added after each reading and the cumulative absorbance at 279 nm was recorded.

CCCCCCCCCCCC(=O)O [lauric acid]
rate of release (elution) of rapamycin: minimal affect on the rate of release of rapamycin
